Experimental data taken from ChEMBL document CHEMBL1150925, “Gibbilimbols A-D, cytotoxic and antibacterial alkenylphenols from Piper gibbilimbum” (J Nat Prod, 1998).
Values after ≈ are worked out from the molar mass of the structure shown. Active and inactive are the calls of the source. The calls are words filed in the database; no cut-off is given here.

Legend:
Bacillus cereus [1] = assay: Antibacterial activity against Bacillus cereus after 24 hrs by broth microdilution method; format: functional
[2] = system: Staphylococcus epidermidis; assay: Antibacterial activity against Staphylococcus epidermidis after 24 hrs by broth microdilution method; format: functional
KB = assay: Cytotoxicity against human KB cells; format: functional; conditions: read-out: ED50 (the source's name)
Bacillus cereus [3] = assay: Antibacterial activity against Bacillus cereus at 60 ug/disk by paper disk diffusion technique; format: functional; conditions: read-out: IZ
Pseudomonas aeruginosa = assay: Antibacterial activity against Pseudomonas aeruginosa at 60 ug/disk by paper disk diffusion technique; format: functional, organism-based
[4] = Toxicity in Artemia salina; format: organism-based; conditions: in vivo, read-out: LD50 (the source's name)
[5] = system: Staphylococcus epidermidis; assay: Antibacterial activity against Staphylococcus epidermidis at 60 ug/disk by paper disk diffusion technique; format: functional; conditions: read-out: IZ

Row | Compound | MIC (Bacillus cereus [1]) | MIC [2] | EC50 (KB) | zone of inhibition at 60 µg/disc (Bacillus cereus [3]) | Activity (Pseudomonas aeruginosa) | LC50 [4] | zone of inhibition at 60 µg/disc [5]
1 | O=C(N[C@H](CO)[C@H](O)c1ccc([N+](=O)[O-])cc1)C(Cl)Cl [CHLORAMPHENICOL] | 4 µg/mL (≈ 12.4 µM) | 8 µg/mL (≈ 24.8 µM) | – | – | – | – | –
2 | CCC/C=C/CCCc1ccc(O)cc1 [GIBBILIMBOL C] | 2 µg/mL (≈ 9.79 µM) | 2 µg/mL (≈ 9.79 µM) | 7.8 µg/mL (≈ 38.2 µM) | < 2 mm | inactive | 5.5 µg/mL (≈ 26.9 µM) | < 2 mm
3 | CCCCC/C=C/CCCc1ccc(O)cc1 [GIBBILIMBOL A] | 4 µg/mL (≈ 17.2 µM) | 4 µg/mL (≈ 17.2 µM) | 4.4 µg/mL (≈ 18.9 µM) | < 2 mm | inactive | 5.3 µg/mL (≈ 22.8 µM) | < 2 mm
4 | CCCC/C=C/CCc1ccc(O)cc1 [GIBBILIMBOL D] | 2 µg/mL (≈ 9.79 µM) | 2 µg/mL (≈ 9.79 µM) | 2.1 µg/mL (≈ 10.3 µM) | < 2 mm | inactive | 5 µg/mL (≈ 24.5 µM) | < 2 mm
5 | CCCCCC/C=C/CCc1ccc(O)cc1 [GIBBILIMBOL B] | 4 µg/mL (≈ 17.2 µM) | 2 µg/mL (≈ 8.61 µM) | 3.9 µg/mL (≈ 16.8 µM) | < 2 mm | inactive | 4.9 µg/mL (≈ 21.1 µM) | < 2 mm
